# Where two headings read alike, the source gives them in different places.
# How the values were obtained:
# THR-β = target: T1, THR-β (Homo sapiens, UniProt P10828); experiment: Test of the binding ability of the compound to TRβ (TRβ LBD/RXR, biotin-SRC2-2 co-activating peptide, 665/615 nm fluorescence ratio); assay type: biochemical; conditions: for Emax: activity relative to positive control; for α/β selectivity (multiple): calculated after being standardized with T3
# T1 construct: TRB LBD, GST purchased from Thermo Fisher; purchased Thermo Fisher PV4762
# Method: 1. Main experimental materials and instruments:
# Biotin-SRC2-2 co-activating peptide purchased from Sangon Biotech (Shanghai) Co., Ltd.
# TRB LBD, GST purchased from Thermo Fisher (product No. PV4762)
# Europium-conjugated anti-glutathione antibody purchased from Cisbio (product No. 61GSTKLB)
# Streptavidin-D2 purchased from Cisbio (product No. 610SADAB)
# (§1) 4.2 The activity percentage was calculated as follows: […]
# (§2) RatioCompound: Average of the relative ratios of the compound wells of the embodiments
# (§3) RatioPositive: Average of the relative ratios of all positive control wells.
# (§4) RatioBlank: Average of the relative ratios of all negative control wells.
# (§5) EC50 was calculated by fitting the relationship between activity (%) and compound logarithmic concentration with Graphpad 5.0 by a nonlinear regression method.
# (§6) Y=Bottom+ (top-bottom)/(1+10^((LogEC50−X)*slope))
# (§7) X: Compound logarithmic concentration Y: Percentage activity
# THR-α = target: T2, THR-α (Homo sapiens, UniProt P10827); experiment: Test of the binding ability of the compound to TRα (TRα LBD/RXRα, biotin-SRC2-2 co-activating peptide, 665/615 nm fluorescence ratio); assay type: biochemical; conditions: for Emax: activity relative to positive control
# T2 construct: TR-a LBD, GST purchased from Thermo Fisher; purchased Thermo Fisher PV4762
# Method: as §1, §2, §3, §4, §5, §6, §7
# [1] = Drug metabolism experiment on prodrug in SD rats: plasma pharmacokinetic parameters; assay type: in vivo; conditions: for concentration of prodrug in plasma / transformation of prodrug into the active parent drug after oral administration: oral 3 mg/kg, in words
# Method: (§8) Test 3: Drug metabolism experiment on prodrug in SD rats
# (§9) In the experiment, […] of 12 male SD rats having similar body weights were selected and orally administered compound 9, compound 10, and the control drug VK2809 (the prodrug of MB07444, structured as shown below) at a dose of 3 mg/kg at a single time, respectively, and blood and liver samples were collected at different time points.
# (§10) Solutions of compound 9/compound 10 and VK2809 with a final concentration of 0.6 mg/mL were respectively prepared, and the ratio between the solvents used for the preparation was PEG400: pure water =50:50 (v/v).
# (§11) No randomization was performed. The weights of the animals were measured before administration, and healthy animals with similar body weights were selected for inclusion in the experiment. The oral dose was 3 mg/kg.
# (§12) At least 0.2 mL of blood was collected from the tail vein or jugular vein, and heparin sodium was used as the anticoagulant.
# 15 min, 30 min, 1 h, 2 h, 4 h, 6 h, 8 h, 24 h after administration.
# (§13) After being collected, a blood sample was placed in a marked ice-water bath centrifuge tube, plasma was quickly separated by centrifugation under centrifugation conditions: 3500 rpm, 10 minutes, and 4° C., and the plasma was stored under −40° C. for testing.
# (§14) Q TRAP6500 mass spectrometer with ESI source was used to perform negative ion MRM scanning. An LC-MS/MS analysis method was used to detect the contents of compound 9, compound 10 and its active metabolite 1, VK2809 and its active metabolite MB07444 in the plasma and liver. The metabolic kinetics data analysis software WinNonlin 7.0 was used to calculate the concentration data of plasma, and the non-compartmental model (NCA) method was used to calculate the pharmacokinetic parameters.
# [2] = Drug metabolism experiment on prodrug in SD rats: concentration in liver compared with blood; assay type: in vivo; conditions: SD rats; for transformation of prodrug into active metabolite 1 in the liver: oral 3 mg/kg, in words
# Method: as §8, §9, §10, §11, §12, §13
# After the liver sample was collected, its surface was washed with normal saline, dried with medical gauze, placed in a labeled small ziplock bag, and stored under −40° C. for testing.
# as §14
# The parameters of concentration in the livers of the SD rats and a comparison with the concentration in plasma are shown in Table 3 below: […]
# [3] = plasma, oral 3 mg/kg Compound 9
# [4] = male, Sprague-Dawley (SD), rat, plasma, po, 3 mg/kg, oral 3 mg/kg Compound 10
# [5] = male, Sprague-Dawley (SD), rat, plasma, po, 3 mg/kg, oral 3 mg/kg VK2809
# [6] = male, Sprague-Dawley (SD), rat, plasma, po, 3 mg/kg, plasma, oral 3 mg/kg VK2809, read-out: Cmax
# [7] = male, Sprague-Dawley, rat, liver, po, 3 mg/kg, 1 h, oral 3 mg/kg VK-2809, read-out: Ct Liver
# [8] = male, Sprague-Dawley, rat, liver, po, 3 mg/kg, 4 h, oral 3 mg/kg VK-2809, read-out: Ct Liver
# [9] = male, Sprague-Dawley, rat, liver, po, 3 mg/kg, 8 h, oral 3 mg/kg VK-2809, read-out: Ct Liver
# [10] = male, Sprague-Dawley, rat, liver/plasma, po, 3 mg/kg, 1 h, oral 3 mg/kg VK-2809, read-out: Liver-to-blood ratio
# [11] = male, Sprague-Dawley, rat, liver/plasma, po, 3 mg/kg, 4 h, oral 3 mg/kg VK-2809, read-out: Liver-to-blood ratio
# [12] = male, Sprague-Dawley, rat, liver/plasma, po, 3 mg/kg, 8 h, oral 3 mg/kg VK-2809, read-out: Liver-to-blood ratio
# [13] = male, Sprague-Dawley, rat, plasma, po, 3 mg/kg, 1 h, oral 3 mg/kg VK-2809, read-out: Ct Blood
# [14] = male, Sprague-Dawley, rat, plasma, po, 3 mg/kg, 4 h, oral 3 mg/kg VK-2809, read-out: Ct Blood
# [15] = male, Sprague-Dawley, rat, plasma, po, 3 mg/kg, 8 h, oral 3 mg/kg VK-2809, read-out: Ct Blood
# T1 sequence (P10828 217-461 limits assumed, other chains not shown): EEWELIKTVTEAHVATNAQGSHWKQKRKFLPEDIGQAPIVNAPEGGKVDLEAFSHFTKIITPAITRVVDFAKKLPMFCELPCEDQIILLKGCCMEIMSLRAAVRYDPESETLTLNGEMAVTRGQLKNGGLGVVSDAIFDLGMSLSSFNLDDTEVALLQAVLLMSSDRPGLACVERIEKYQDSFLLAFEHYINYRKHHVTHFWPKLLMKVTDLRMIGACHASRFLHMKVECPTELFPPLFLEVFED
# T1 sequence (P28702 whole entry partner, other chains not shown, the tested form may be a part): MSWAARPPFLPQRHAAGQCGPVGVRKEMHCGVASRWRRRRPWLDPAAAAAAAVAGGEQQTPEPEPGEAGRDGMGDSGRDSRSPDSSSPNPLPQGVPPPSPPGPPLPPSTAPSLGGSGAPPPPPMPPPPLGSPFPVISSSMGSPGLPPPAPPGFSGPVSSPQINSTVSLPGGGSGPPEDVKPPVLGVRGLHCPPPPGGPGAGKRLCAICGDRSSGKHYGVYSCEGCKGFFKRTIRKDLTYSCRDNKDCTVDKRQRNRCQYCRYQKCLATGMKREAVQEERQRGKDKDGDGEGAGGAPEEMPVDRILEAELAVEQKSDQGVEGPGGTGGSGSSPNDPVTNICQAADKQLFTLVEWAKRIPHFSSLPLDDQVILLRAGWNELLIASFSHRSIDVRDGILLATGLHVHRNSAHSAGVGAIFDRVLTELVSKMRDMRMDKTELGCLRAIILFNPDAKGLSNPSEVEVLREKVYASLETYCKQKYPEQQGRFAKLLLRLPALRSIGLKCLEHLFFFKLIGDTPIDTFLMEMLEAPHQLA
# T2 sequence (P10827 163-410 isoform P10827-2 limits assumed, other chains not shown): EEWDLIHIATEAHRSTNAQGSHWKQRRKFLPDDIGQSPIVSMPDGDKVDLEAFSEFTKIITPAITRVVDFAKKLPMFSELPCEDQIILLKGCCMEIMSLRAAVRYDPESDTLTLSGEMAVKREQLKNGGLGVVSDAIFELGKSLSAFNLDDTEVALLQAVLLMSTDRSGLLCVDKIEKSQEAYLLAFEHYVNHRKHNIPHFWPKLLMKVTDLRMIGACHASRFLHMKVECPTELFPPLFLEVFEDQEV
# T2 sequence (P19793 whole entry partner, other chains not shown, the tested form may be a part): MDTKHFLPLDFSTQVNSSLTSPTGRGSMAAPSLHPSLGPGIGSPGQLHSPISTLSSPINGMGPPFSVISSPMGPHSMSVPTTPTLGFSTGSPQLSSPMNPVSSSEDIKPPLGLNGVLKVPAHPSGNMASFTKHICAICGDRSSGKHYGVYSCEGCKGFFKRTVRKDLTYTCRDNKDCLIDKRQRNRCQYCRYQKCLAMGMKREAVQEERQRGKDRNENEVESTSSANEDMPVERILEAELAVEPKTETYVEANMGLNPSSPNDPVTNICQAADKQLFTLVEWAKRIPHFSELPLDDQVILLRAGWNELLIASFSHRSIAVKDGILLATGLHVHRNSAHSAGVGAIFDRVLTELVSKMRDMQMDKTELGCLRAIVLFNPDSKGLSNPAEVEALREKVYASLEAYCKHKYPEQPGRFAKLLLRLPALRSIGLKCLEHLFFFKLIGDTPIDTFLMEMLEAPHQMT
EC50 (THR-β) [nM],Emax (THR-β) [%],EC50 (THR-α) [nM],Emax (THR-α) [%],α/β selectivity (multiple) (THR-β),"AUC(0-inf) [1, 5] [ng·h/mL]","AUC(0-t) [1, 5] [ng·h/mL]","Tmax [1, 5] [h]","half-life [1, 5] [h]","Cmax [1, 6] [ng/mL]","Kel ([1]; plasma, oral 3 mg/kg VK2809) [h⁻¹]","concentration at 1 h [2, 7] [ng/g]","concentration at 4 h [2, 8] [ng/g]","concentration at 8 h [2, 9] [ng/g]","Kp at 1 h [2, 10]","Kp at 4 h [2, 11]","Kp at 8 h [2, 12]",Structure (SMILES),concentration of prodrug in plasma [1],transformation of prodrug into the active parent drug after oral administration [1],transformation of prodrug into active metabolite 1 in the liver [2],other results
< 100,110,< 200,102,,,,,,,,,,,,,,"Cc1cc(OCP(=O)(O)O)cc(C)c1Oc1ccc(O)c2c1CCC2(C)C [Compound 5, ((4-((7-hydroxy-1,1-dimethyl-2,3-dihydro-1H-indene-4-position)oxy)-3,5-dimethylphenoxy)methyl) phosphoric acid]",,,,
108,79,50,99.2,0.7,,,,,,,,,,,,,"CC1(C)CCc2c(Cc3c(Cl)cc(OCP(=O)(O)O)cc3Cl)ccc(O)c21 [Compound 6, ((3,5-dichloro-4-((7-hydroxy-1,1-dimethyl-2,3-dihydro-1H-indene-4-position)methyl)phenoxy)methyl) phosphoric acid]",,,,
,,,,,,,,,,,,,,,,,Cc1cc(OC[P@@](=O)(N[C@@H](C)C(=O)OC(C)C)Oc2ccccc2)cc(C)c1Cc1ccc(O)c2c1CCC2(C)C [Compound 9],not high,quickly transformed into the active parent drug compound 1,rapidly metabolized in the liver to produce active metabolite compound 1,"AUC0−t [1, 3]: BLQ; AUC0−∞ [1, 3]: BLQ; Cmax [1, 3]: BLQ; Ct Blood ([2]; 1 h, oral 3 mg/kg Compound 9): BLQ; Ct Liver ([2]; 1 h, oral 3 mg/kg Compound 9): BLQ; Ct Blood ([2]; 4 h, oral 3 mg/kg Compound 9): BLQ; Ct Liver ([2]; 4 h, oral 3 mg/kg Compound 9): BLQ; Ct Blood ([2]; 8 h, oral 3 mg/kg Compound 9): BLQ; Ct Liver ([2]; 8 h, oral 3 mg/kg Compound 9): BLQ; Ct Blood ([2]; 24 h, oral 3 mg/kg Compound 9): BLQ; Ct Liver ([2]; 24 h, oral 3 mg/kg Compound 9): BLQ"
,,,,,,,,,,,,,,,,,Cc1cc(OC[P@@]2(=O)OCC[C@@H](c3cccc(Cl)c3)O2)cc(C)c1Cc1ccc(O)c2c1CCC2(C)C [Compound 10],not high,quickly transformed into the active parent drug compound 1,much better than that of VK2809,"AUC(0-inf) [1, 4]: 89.3 ng·h/mL; AUC(0-t) [1, 4]: 69.2 ng·h/mL; Tmax [1, 4]: 4.67 h; half-life [1, 4]: 1.73 h; Cmax ([1]; male, Sprague-Dawley (SD), rat, plasma, po, 3 mg/kg, plasma, oral 3 mg/kg Compound 10, read-out: Cmax): 19.9 ng/mL; Kel ([1]; plasma, oral 3 mg/kg Compound 10): 0.428 h⁻¹; Ct Blood ([2]; 24 h, oral 3 mg/kg Compound 10): BLQ; Ct Liver ([2]; 24 h, oral 3 mg/kg Compound 10): BLQ; Kp at 1 h ([2]; male, Sprague-Dawley (SD), rat, liver / plasma (heading prints blood), po, 3 mg/kg, 1 h, oral 3 mg/kg Compound 10, read-out: Liver-to-blood ratio): 16.2; Kp at 4 h ([2]; male, Sprague-Dawley (SD), rat, liver / plasma (heading prints blood), po, 3 mg/kg, 4 h, oral 3 mg/kg Compound 10, read-out: Liver-to-blood ratio): 7.8; Kp at 8 h ([2]; male, Sprague-Dawley (SD), rat, liver / plasma (heading prints blood), po, 3 mg/kg, 8 h, oral 3 mg/kg Compound 10, read-out: Liver-to-blood ratio): 4.7; concentration at 1 h ([2]; male, Sprague-Dawley (SD), rat, liver, po, 3 mg/kg, 1 h, oral 3 mg/kg Compound 10, read-out: Ct Liver): 141 ng/g; concentration at 4 h ([2]; male, Sprague-Dawley (SD), rat, liver, po, 3 mg/kg, 4 h, oral 3 mg/kg Compound 10, read-out: Ct Liver): 273 ng/g; concentration at 8 h ([2]; male, Sprague-Dawley (SD), rat, liver, po, 3 mg/kg, 8 h, oral 3 mg/kg Compound 10, read-out: Ct Liver): 46.5 ng/g; concentration at 1 h ([2]; male, Sprague-Dawley (SD), rat, plasma (heading prints blood), po, 3 mg/kg, 1 h, oral 3 mg/kg Compound 10, read-out: Ct Blood): 8.8 ng/g; concentration at 4 h ([2]; male, Sprague-Dawley (SD), rat, plasma (heading prints blood), po, 3 mg/kg, 4 h, oral 3 mg/kg Compound 10, read-out: Ct Blood): 7.9 ng/g; concentration at 8 h ([2]; male, Sprague-Dawley (SD), rat, plasma (heading prints blood), po, 3 mg/kg, 8 h, oral 3 mg/kg Compound 10, read-out: Ct Blood): 10.3 ng/g"
33,113,51,113,2.9,448,420,7.33,5.29,38.8,0.131,214,952,542,15.9,14,13.6,"Cc1cc(OCP(=O)(O)O)cc(C)c1Cc1ccc(O)c(C(C)C)c1 [MB07444, reference compound]",,,,"concentration at 24 h ([2]; male, Sprague-Dawley, rat, liver, po, 3 mg/kg, 24 h, oral 3 mg/kg VK-2809, read-out: Ct Liver): 37 ng/g; Kp at 24 h ([2]; male, Sprague-Dawley, rat, liver/plasma, po, 3 mg/kg, 24 h, oral 3 mg/kg VK-2809, read-out: Liver-to-blood ratio): 9.9; concentration at 1 h [2, 13]: 5.9 ng/g; concentration at 4 h [2, 14]: 16.9 ng/g; concentration at 8 h [2, 15]: 29.6 ng/g; concentration at 24 h ([2]; male, Sprague-Dawley, rat, plasma, po, 3 mg/kg, 24 h, oral 3 mg/kg VK-2809, read-out: Ct Blood): 3.6 ng/g"
,,,,,83.3,43.6,6,4.81,9.9,0.273,39,30,17,8.6,5.2,4,"Cc1cc(OC[P@@]2(=O)OCC[C@@H](c3cccc(Cl)c3)O2)cc(C)c1Cc1ccc(O)c(C(C)C)c1 [VK2809, reference compound]",,,,"Ct Blood ([2]; 24 h, oral 3 mg/kg VK-2809): BLQ; Ct Liver ([2]; 24 h, oral 3 mg/kg VK-2809): BLQ; concentration at 1 h [2, 13]: 2.9 ng/g; concentration at 4 h [2, 14]: 4.8 ng/g; concentration at 8 h [2, 15]: 5.6 ng/g"

# Source: patent US12378268B2, “Heterocyclic THR-β receptor agonist compound and preparation method and use therefor” (Hepagene Therapeutics (HK) Limited, priority 2019, dated 2025)
